We go through 26 compounds from the NIST ThermoML archive (doi:10.1016/j.tca.2014.05.033).

“And” between values parts separate entries of the source, which are not always exact repeats. Equal values may be shown once. ± gives the expanded uncertainty stated by the source.

Data set [1] is described as follows: mn = molality of the nth substance listed, in mol/kg. Particulars: 298.15 K, 101 kPa, Liquid, Vibrating tube method.
Data set [2] in a line: refractive index (Na D-line) (dimensionless); mn = molality of the nth substance listed, in mol/kg. The following applies: 298.15 K, 101 kPa, Liquid, Standard Abbe refractometry.
Data set [3] in a line: molar enthalpy of vaporization or sublimation. Particulars: 298.15 K; Crystal; DSC.

As to `c1ccccc1` [benzene] + c1ccc(-c2c3ccccc3c(-c3ccccc3)c3ccccc23)cc1, the mass density in data set [1] (m2 = 0) is listed as 873.534 ± 0.89 kg/m3. Further, the refractive index in data set [2] (m2 = 0) was found to be 1.49752 ± 0.00031.

Regarding `c1cc2ccc3cccc4ccc(c1)c2c34` [pyrene], in data set [3], the molar enthalpy is 25.2 ± 0.789 kcal/mol.

On to `c1ccc(-c2ccc(-c3ccccc3)cc2)cc1` [p-terphenyl], for which, in data set [3], the molar enthalpy was determined as 29 ± 1 kcal/mol.

On to `c1ccc(-c2cccc(-c3ccccc3)c2)cc1` [m-terphenyl] + c1ccccc1, for which the mass density worked out at 876.044 ± 0.54 kg/m3 in data set [1] (m1 = 0.00482), 878.445 ± 0.53 kg/m3 in data set [1] (m1 = 0.00941), 880.914 ± 0.52 kg/m3 in data set [1] (m1 = 0.0142) and 884.612 ± 0.52 kg/m3 in data set [1] (m1 = 0.0215). Also, the refractive index was determined as 1.49966 ± 0.00031 in data set [2] (m1 = 0.00482), 1.50149 ± 0.00031 in data set [2] (m1 = 0.00941), 1.50336 ± 0.00031 in data set [2] (m1 = 0.0142) and 1.50621 ± 0.00031 in data set [2] (m1 = 0.0215).

With `c1ccc2c(c1)-c1cccc3cccc-2c13` [fluoranthene], the molar enthalpy in data set [3] was determined as 24.1 ± 0.669 kcal/mol.

As to `c1ccc(-c2c3ccccc3c(-c3ccccc3)c3ccccc23)cc1` [9,10-diphenylanthracene], in data set [3], the molar enthalpy is 36.5 ± 1.27 kcal/mol.

`c1ccc2c(c1)ccc1cc3c(ccc4ccccc43)cc12` [dibenz[a,h]anthracene]: in data set [3], the molar enthalpy is 35.4 ± 1.12 kcal/mol.

Regarding `C(#Cc1ccccc1)c1ccccc1` [1,2-diphenylethyne], the molar enthalpy in data set [3] amounted to 22 ± 1.08 kcal/mol.

With `C(#Cc1ccccc1)c1ccccc1` [1,2-diphenylethyne] + c1ccccc1, the mass density in data set [1] (m1 = 0.00019) is recorded as 873.334 ± 0.34 kg/m3; in data set [1] (m1 = 0.00036) it was 873.403 ± 0.45 kg/m3; in data set [1] (m1 = 0.00042), 873.437 ± 0.58 kg/m3; in data set [1] (m1 = 0.00079), 873.534 ± 0.28 kg/m3. Moreover, the refractive index in data set [2] (m1 = 0.00019) stood at 1.49738 ± 0.00031; in data set [2] (m1 = 0.00036), 1.49743 ± 0.00031; in data set [2] (m1 = 0.00042) it was 1.49747 ± 0.00031; in data set [2] (m1 = 0.00079) it was 1.49756 ± 0.00031.

As for `c1ccc(-c2c(-c3ccccc3)c(-c3ccccc3)c(-c3ccccc3)c(-c3ccccc3)c2-c2ccccc2)cc1` [hexaphenylbenzene], the molar enthalpy in data set [3] came to 46.8 ± 1.41 kcal/mol.

For `c1ccccc1` [benzene] + c1ccc(-c2cccc(-c3ccccc3)c2)cc1, the mass density in data set [1] (m2 = 0) worked out at 873.483 ± 0.54 kg/m3. The refractive index in data set [2] (m2 = 0) worked out at 1.49772 ± 0.00031.

Consider `c1ccc(-c2c(-c3ccccc3)c(-c3ccccc3)c3ccccc3c2-c2ccccc2)cc1` [1,2,3,4-tetraphenylnaphthalene], for which, in data set [3], the molar enthalpy stood at 39.4 ± 1.48 kcal/mol.

Consider `c1ccc(-c2c3ccccc3cc3ccccc23)cc1` [9-phenylanthracene], for which the molar enthalpy in data set [3] stood at 30 ± 0.765 kcal/mol.

Consider `c1ccc(-c2cccc(-c3ccccc3)c2)cc1` [m-terphenyl], for which the molar enthalpy in data set [3] turned out to be 27.6 ± 0.621 kcal/mol.

`c1ccc(-c2c(-c3ccccc3)c(-c3ccccc3)c3ccccc3c2-c2ccccc2)cc1` [1,2,3,4-tetraphenylnaphthalene] + c1ccccc1: the mass density was 873.38 ± 1.3 kg/m3 in data set [1] (m1 = 8e-05); 873.424 ± 1.2 kg/m3 in data set [1] (m1 = 0.00011); 873.488 ± 1.2 kg/m3 and 873.494 ± 1.2 kg/m3 in data set [1] (m1 = 0.00017); 873.551 ± 1.3 kg/m3 in data set [1] (m1 = 0.00022). For the same compound, the refractive index was 1.49737 ± 0.00031 in data set [2] (m1 = 0.0008); 1.4974 ± 0.00031 in data set [2] (m1 = 0.0011); 1.49744 ± 0.00031 and 1.49745 ± 0.00031 in data set [2] (m1 = 0.0017); 1.49748 ± 0.00031 in data set [2] (m1 = 0.0022).

As to `c1ccc(-c2c3ccccc3c(-c3ccccc3)c3ccccc23)cc1` [9,10-diphenylanthracene] + c1ccccc1, the mass density worked out at 873.64 ± 0.84 kg/m3 in data set [1] (m1 = 0.00012); 873.666 ± 0.93 kg/m3 in data set [1] (m1 = 0.00016); 873.731 ± 1.1 kg/m3 in data set [1] (m1 = 0.00022); 873.796 ± 1.1 kg/m3 in data set [1] (m1 = 0.00028); 873.822 ± 1.3 kg/m3 in data set [1] (m1 = 0.0003). The refractive index in data set [2] (m1 = 0.00012) came to 1.49761 ± 0.00031; in data set [2] (m1 = 0.00016), 1.49763 ± 0.00031; in data set [2] (m1 = 0.00022) it was 1.49768 ± 0.00031; in data set [2] (m1 = 0.00028), 1.49773 ± 0.00031; in data set [2] (m1 = 0.0003), 1.49776 ± 0.00031.

Consider `c1ccccc1` [benzene] + C(#Cc1ccccc1)c1ccccc1, for which the mass density in data set [1] (m2 = 0) is listed as 873.285 ± 0.28 kg/m3. Also, the refractive index in data set [2] (m2 = 0) was 1.49734 ± 0.00031.

For `c1ccc(-c2c3ccccc3c(-c3ccccc3)c3c(-c4ccccc4)c4ccccc4c(-c4ccccc4)c23)cc1` [5,6,11,12-tetraphenylnaphthacene], in data set [3], the molar enthalpy is 51 ± 1.31 kcal/mol.

Consider `c1ccc2cc3c(ccc4ccccc43)cc2c1` [benz[a]anthracene], for which, in data set [3], the molar enthalpy worked out at 27.8 ± 0.741 kcal/mol.

Consider `c1ccc(-c2c3ccccc3cc3ccccc23)cc1` [9-phenylanthracene] + c1ccccc1, for which the mass density is 873.687 ± 0.71 kg/m3 in data set [1] (m1 = 0.00011), 873.837 ± 0.75 kg/m3 in data set [1] (m1 = 0.00032), 873.891 ± 0.91 kg/m3 in data set [1] (m1 = 0.00038) and 874.047 ± 0.39 kg/m3 in data set [1] (m1 = 0.0008). In addition, the refractive index in data set [2] (m1 = 0.00011) is listed as 1.49764 ± 0.00031; in data set [2] (m1 = 0.00032), 1.49776 ± 0.00031; in data set [2] (m1 = 0.00038), 1.4978 ± 0.00031; in data set [2] (m1 = 0.0008), 1.49794 ± 0.00031.

Take `c1ccccc1` [benzene] + c1ccc(-c2c(-c3ccccc3)c(-c3ccccc3)c3ccccc3c2-c2ccccc2)cc1: the mass density in data set [1] (m2 = 0) was 873.277 ± 1.3 kg/m3. In data set [2] (m2 = 0), the refractive index turned out to be 1.49731 ± 0.00031.

Turning to `c1ccccc1` [benzene] + c1ccc(-c2cccc(-c3ccccc3)c2-c2ccccc2)cc1, the mass density in data set [1] (m2 = 0) stood at 873.584 ± 0.76 kg/m3. Besides, the refractive index in data set [2] (m2 = 0) stood at 1.49778 ± 0.00031.

Turning to `C(=C\c1ccccc1)/c1ccccc1` [(E)-1,2-diphenylethene], the molar enthalpy in data set [3] came out at 24.6 ± 0.669 kcal/mol.

For `c1ccc(-c2cccc(-c3ccccc3)c2-c2ccccc2)cc1` [1,2,3-triphenylbenzene], the molar enthalpy in data set [3] came out at 33.1 ± 1 kcal/mol.

Turning to `c1ccccc1` [benzene] + c1ccc(-c2c3ccccc3cc3ccccc23)cc1, the mass density in data set [1] (m2 = 0) is recorded as 873.612 ± 0.69 kg/m3. The refractive index in data set [2] (m2 = 0) amounted to 1.49758 ± 0.00031.

For `c1ccc(-c2cccc(-c3ccccc3)c2-c2ccccc2)cc1` [1,2,3-triphenylbenzene] + c1ccccc1, the mass density in data set [1] (m1 = 0.00038) came out at 873.87 ± 0.78 kg/m3; in data set [1] (m1 = 0.00061), 874.054 ± 0.83 kg/m3; in data set [1] (m1 = 0.0007), 874.135 ± 0.78 kg/m3; in data set [1] (m1 = 0.0008), 874.201 ± 0.67 kg/m3. Besides, the refractive index in data set [2] (m1 = 0.00038) is given as 1.49797 ± 0.00031; in data set [2] (m1 = 0.00061), 1.49809 ± 0.00031; in data set [2] (m1 = 0.0007) it was 1.49814 ± 0.00031; in data set [2] (m1 = 0.0008) it was 1.49819 ± 0.00031.

By mass density is commonly meant mass per unit of volume. A word on the refractive index: it is a measure of how strongly the sample bends light.
